According to PMC3793852 (Journal of medicinal chemistry, 2013):

Columns and labels:
[1] = test system: L1210 (ATCC CCL-219) mouse lymphocytic leukemia cells; experiment: Cell growth inhibition assay; format: cell-based; details: for fold less active than duocarmycin SA (loss in activity): L1210, relative to duocarmycin SA
PAMPA assay = format: in vitro ADME; details: for Papp at 5 h, 1 μM: pH 7.4

Structure (SMILES) | fold less active than duocarmycin SA (loss in activity) [1] | IC50 ([1]; Mus musculus, L1210, read-out: –log IC50, cell growth inhibition (converted)) [nM] | Papp at 5 h, 1 μM (PAMPA assay) [×10⁻⁶ cm/s] | fold reduction in permeability relative to 2 (PAMPA assay; relative to 2) [fold]
COCCOc1cc2cc(C(=O)N3C[C@@H](CCl)c4c3cc(O)c3[nH]c(C(=O)OC)cc43)[nH]c2c(OCCOC)c1OCCOC [10a] | approximately 5 fold |  |  | 
COCCOCCOCCOCCOCCOc1cc2cc(C(=O)N3C[C@@H](CCl)c4c3cc(O)c3[nH]c(C(=O)OC)cc43)[nH]c2c(OCCOCCOCCOCCOCCOC)c1OCCOCCOCCOCCOCCOC [10e] |  | 398 | 0.11 | 85
COCCOc1c(OC)cc2cc(C(=O)N3C[C@@H](CCl)c4c3cc(O)c3[nH]c(C(=O)OC)cc43)[nH]c2c1OC [15a] | approximately 2 fold |  | 4 | 
COCCOCCOCCOCCOCCOc1c(OC)cc2cc(C(=O)N3C[C@@H](CCl)c4c3cc(O)c3[nH]c(C(=O)OC)cc43)[nH]c2c1OC [15e] | 30 fold |  | 2.1 | 
COC(=O)c1cc2c([nH]1)C(=O)C=C1N(C(=O)c3cc4cc(OC)c(OC)c(OC)c4[nH]3)CC3CC123 (stereo not drawn) [compound 2, duocarmycin SA, reference compound] |  |  | 9.5 | 
